Laboratory results as given in US9499535B2, “Kinase inhibitors” (ORIGENIS GMBH, priority 2011, dated 2016).

How the values were obtained:
LRRK2 = LRRK2 (Homo sapiens, UniProt Q5S007); assay: LRRK2 assay (LanthaScreen Eu Kinase Binding Assay); conditions: 5 nM LRRK2, 10 nM tracer 236, RT 1 h; read-out: LRRK2 Activites: IC50
In short: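 Kinase binding was detected by europium anti-tag antibody FRET with a competing tracer, so inhibitor binding lowers the FRET signal. IC50 came from a variable-slope sigmoidal fit of emission ratio against inhibitor concentration.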

SYK kinase = target: T1, SYK kinase (Homo sapiens, UniProt P43405); assay: SYK assay (OMNIA Kinase Assay, Invitrogen); format: biochemical; conditions: apparent Ki calculated from the IC50 using the Cheng-Prusoff equation; 1 mM ATP, 10 μM Peptide Substrate; read-out: SYK Activities: Ki
T1 construct: purchased Invitrogen, Carlsbad
In short: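 Continuous SOX-fluorescence (Omnia) readout of Tyr 7 peptide (10 μM) phosphorylation with 1 mM ATP and 0.2 mM DTT at 30° C, started by SYK addition. Fluorescence (λex 360/λem 485 nm) was read every 30 s for 30 min. IC50 from velocity vs concentration; apparent Ki via Cheng-Prusoff.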

MYLK = MYLK (Homo sapiens, UniProt Q15746); assay: MYLK assay (LanthaScreen Eu Kinase Binding Assay); conditions: 5 nM MYLK, 30 nM tracer 236, RT 1 h; read-out: MYLK Activites: IC50
MYLK, sequence (Q15746 whole entry): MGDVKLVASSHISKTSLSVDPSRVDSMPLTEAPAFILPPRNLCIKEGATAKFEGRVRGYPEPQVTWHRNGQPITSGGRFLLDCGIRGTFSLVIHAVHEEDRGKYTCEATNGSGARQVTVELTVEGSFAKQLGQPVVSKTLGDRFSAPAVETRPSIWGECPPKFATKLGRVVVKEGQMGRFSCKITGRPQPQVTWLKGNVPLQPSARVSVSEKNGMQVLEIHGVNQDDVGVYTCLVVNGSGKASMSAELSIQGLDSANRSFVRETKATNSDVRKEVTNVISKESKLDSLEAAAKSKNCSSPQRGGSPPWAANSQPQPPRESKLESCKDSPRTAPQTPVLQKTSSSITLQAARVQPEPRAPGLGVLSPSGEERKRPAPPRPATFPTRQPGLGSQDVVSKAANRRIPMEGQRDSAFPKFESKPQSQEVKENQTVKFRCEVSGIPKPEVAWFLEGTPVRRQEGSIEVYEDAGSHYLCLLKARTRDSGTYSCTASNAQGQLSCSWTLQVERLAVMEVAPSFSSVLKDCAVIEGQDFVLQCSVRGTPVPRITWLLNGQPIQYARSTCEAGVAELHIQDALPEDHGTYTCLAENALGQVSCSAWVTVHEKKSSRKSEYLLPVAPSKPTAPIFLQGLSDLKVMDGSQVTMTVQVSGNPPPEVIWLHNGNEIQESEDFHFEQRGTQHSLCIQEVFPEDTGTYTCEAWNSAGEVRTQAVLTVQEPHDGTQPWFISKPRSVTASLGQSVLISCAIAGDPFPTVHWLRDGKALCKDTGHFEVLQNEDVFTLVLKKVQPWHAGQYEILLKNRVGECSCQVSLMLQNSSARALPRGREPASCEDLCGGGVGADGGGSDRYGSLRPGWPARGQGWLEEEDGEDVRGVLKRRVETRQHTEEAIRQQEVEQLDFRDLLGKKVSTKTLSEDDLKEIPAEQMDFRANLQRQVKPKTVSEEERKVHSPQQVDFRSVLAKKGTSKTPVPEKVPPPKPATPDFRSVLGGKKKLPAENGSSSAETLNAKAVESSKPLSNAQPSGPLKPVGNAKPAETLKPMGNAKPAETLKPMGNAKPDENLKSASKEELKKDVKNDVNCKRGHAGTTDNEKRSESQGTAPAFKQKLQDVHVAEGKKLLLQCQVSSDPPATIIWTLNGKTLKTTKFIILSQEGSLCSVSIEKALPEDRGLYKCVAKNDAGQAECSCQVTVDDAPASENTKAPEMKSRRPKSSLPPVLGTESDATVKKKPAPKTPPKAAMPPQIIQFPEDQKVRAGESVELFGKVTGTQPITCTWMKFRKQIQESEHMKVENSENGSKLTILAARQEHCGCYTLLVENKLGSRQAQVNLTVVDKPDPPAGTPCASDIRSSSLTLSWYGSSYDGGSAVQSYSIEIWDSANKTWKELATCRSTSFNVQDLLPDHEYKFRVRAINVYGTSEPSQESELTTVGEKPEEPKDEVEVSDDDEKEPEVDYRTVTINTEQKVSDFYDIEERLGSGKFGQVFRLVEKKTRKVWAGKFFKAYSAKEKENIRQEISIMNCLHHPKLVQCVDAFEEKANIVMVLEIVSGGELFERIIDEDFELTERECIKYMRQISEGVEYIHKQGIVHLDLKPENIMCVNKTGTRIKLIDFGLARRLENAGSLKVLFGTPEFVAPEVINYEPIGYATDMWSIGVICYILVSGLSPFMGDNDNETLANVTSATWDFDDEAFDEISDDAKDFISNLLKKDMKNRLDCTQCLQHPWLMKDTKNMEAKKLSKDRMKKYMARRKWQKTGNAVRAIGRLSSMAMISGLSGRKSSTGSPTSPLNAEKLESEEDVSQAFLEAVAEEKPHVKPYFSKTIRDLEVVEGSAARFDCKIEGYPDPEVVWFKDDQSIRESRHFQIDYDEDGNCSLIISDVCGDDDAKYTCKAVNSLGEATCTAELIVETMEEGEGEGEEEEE
In short: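 TR-FRET tracer-displacement binding: 5 nM MYLK with 2 nM Eu-anti-GST antibody and 30 nM tracer 236 in kinase buffer A, 1 h at RT. The 665/615 nm emission ratio was plotted against inhibitor concentration; IC50 from variable-slope sigmoidal fit.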

LRRK2, sequence (Q5S007 970-2527 limits assumed): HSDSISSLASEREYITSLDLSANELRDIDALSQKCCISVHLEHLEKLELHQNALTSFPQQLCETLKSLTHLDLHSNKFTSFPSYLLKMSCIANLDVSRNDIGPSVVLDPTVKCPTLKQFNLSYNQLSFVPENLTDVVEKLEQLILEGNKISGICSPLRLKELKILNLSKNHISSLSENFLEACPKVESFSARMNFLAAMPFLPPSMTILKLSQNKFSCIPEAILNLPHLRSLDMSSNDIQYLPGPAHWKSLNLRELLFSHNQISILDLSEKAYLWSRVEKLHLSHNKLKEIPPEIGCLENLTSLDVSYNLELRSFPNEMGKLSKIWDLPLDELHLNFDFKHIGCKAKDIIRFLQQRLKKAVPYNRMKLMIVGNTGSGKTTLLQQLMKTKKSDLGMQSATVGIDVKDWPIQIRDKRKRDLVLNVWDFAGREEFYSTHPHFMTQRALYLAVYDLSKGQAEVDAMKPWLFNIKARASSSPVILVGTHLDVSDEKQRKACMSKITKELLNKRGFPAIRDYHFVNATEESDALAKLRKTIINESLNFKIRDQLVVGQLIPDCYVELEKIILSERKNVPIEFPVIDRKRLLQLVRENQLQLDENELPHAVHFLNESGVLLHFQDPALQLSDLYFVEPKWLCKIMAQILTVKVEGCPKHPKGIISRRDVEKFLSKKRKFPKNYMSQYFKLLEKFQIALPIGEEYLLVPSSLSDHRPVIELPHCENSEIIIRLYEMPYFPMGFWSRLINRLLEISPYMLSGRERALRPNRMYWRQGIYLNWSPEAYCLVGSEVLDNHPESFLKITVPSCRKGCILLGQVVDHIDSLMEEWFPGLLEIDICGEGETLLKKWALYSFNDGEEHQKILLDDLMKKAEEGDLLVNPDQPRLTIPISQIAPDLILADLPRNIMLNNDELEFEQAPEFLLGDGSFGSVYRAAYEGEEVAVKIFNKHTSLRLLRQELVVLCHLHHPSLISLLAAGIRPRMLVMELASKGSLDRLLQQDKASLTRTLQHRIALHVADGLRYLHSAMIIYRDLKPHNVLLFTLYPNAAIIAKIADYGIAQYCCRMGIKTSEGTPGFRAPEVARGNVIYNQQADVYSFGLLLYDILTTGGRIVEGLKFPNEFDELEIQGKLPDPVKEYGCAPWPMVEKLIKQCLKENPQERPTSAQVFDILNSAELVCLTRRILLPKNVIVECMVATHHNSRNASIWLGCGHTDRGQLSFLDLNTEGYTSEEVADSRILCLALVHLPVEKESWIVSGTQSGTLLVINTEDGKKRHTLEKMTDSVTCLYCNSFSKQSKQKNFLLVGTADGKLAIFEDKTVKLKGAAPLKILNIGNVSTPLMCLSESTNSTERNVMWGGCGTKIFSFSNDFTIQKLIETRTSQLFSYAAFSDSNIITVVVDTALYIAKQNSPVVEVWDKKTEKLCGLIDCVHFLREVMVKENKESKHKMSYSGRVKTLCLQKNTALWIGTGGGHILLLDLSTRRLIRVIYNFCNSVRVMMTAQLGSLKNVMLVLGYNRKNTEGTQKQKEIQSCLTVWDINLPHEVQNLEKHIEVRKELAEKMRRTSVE

Row | Compound | IC50 (LRRK2) | Ki (SYK kinase) | IC50 (MYLK)
1 | COc1ccc2nc(Nc3ccc(OC4CCN(C)CC4)nc3)c3n[nH]cc3c2c1 [Example #255, (8-Methoxy-2H-pyrazolo[3,4-c]quinolin-4-yl)-[6-(1-methyl-piperidin-4-yloxy)-pyridin-3-yl]-amine] | 100 to 1000 nM | 10 to 100 nM | < 5000 nM
2 | COc1ccc2c(c1)nc(Nc1ccc3c(c1)NC(=O)CCC3)c1n[nH]cc12 [Example #257, 8-((7-methoxy-2H-pyrazolo[3,4-c]quinolin-4-yl)amino)-4,5-dihydro-1H-benzo[b]azepin-2(3H)-one] | 100 to 1000 nM | < 10 nM | < 5000 nM
3 | COc1cccc2c1nc(Nc1ccc3c(c1)OCCO3)c1n[nH]cc12 [Example #258, (2,3-Dihydro-benzo[1,4]dioxin-6-yl)-(6-methoxy-2H-pyrazolo[3,4-c]quinolin-4-yl)-amine] | 100 to 1000 nM | 100 to 1000 nM | < 5000 nM
4 | COc1ccc2c(c1)nc(Nc1ccc(N3CCN(C4CC4)CC3)cc1)c1n[nH]cc12 [Example #262, [4-(4-Cyclopropyl-piperazin-1-yl)-phenyl]-(7-methoxy-2H-pyrazolo[3,4-c]quinolin-4-yl)-amine] | 100 to 1000 nM | 10 to 100 nM | < 5000 nM
5 | COc1ccc2c(c1)nc(Nc1ccc3[nH]c(C)nc3c1)c1n[nH]cc12 [Example #264, (7-Methoxy-2H-pyrazolo[3,4-c]quinolin-4-yl)-(2-methyl-1H-benzoimidazol-5-yl)-amine] | 100 to 1000 nM | 10 to 100 nM | < 5000 nM
6 | COc1ccc2c(c1)nc(Nc1ccc3c(c1)NC(=O)CO3)c1n[nH]cc12 [Example #266, 6-((7-methoxy-2H-pyrazolo[3,4-c]quinolin-4-yl)amino)-2H-benzo[b][1,4]oxazin-3(4H)-one] | 10 to 100 nM | < 10 nM | < 5000 nM
7 | COc1cccc2c1nc(Nc1ccc3[nH]ncc3c1)c1n[nH]cc12 [Example #268, (1H-Indazol-5-yl)-(6-methoxy-2H-pyrazolo[3,4-c]quinolin-4-yl)-amine] | 100 to 1000 nM | 10 to 100 nM | < 5000 nM
8 | COc1ccc2nc(Nc3ccc(N4CCN(C5CCCC5)CC4)cc3)c3n[nH]cc3c2c1 [Example #269, [4-(4-Cyclopentyl-piperazin-1-yl)-phenyl]-(8-methoxy-2H-pyrazolo[3,4-c]quinolin-4-yl)-amine] | 10 to 100 nM | 100 to 1000 nM | < 5000 nM
9 | COc1ccc2nc(Nc3ccc(N4CCN(CC(C)C)CC4)cc3)c3n[nH]cc3c2c1 [Example #270, [4-(4-Isobutyl-piperazin-1-yl)-phenyl]-(8-methoxy-2H-pyrazolo[3,4-c]quinolin-4-yl)-amine] | 100 to 1000 nM | < 10 nM | < 5000 nM
10 | COc1ccc2nc(Nc3ccc(N4CCN(C(C)C)CC4)cc3)c3n[nH]cc3c2c1 [Example #271, [4-(4-Isopropyl-piperazin-1-yl)-phenyl]-(8-methoxy-2H-pyrazolo[3,4-c]quinolin-4-yl)-amine] | 10 to 100 nM | < 10 nM | < 5000 nM
11 | COc1ccc2nc(Nc3ccc(N4CCN(CC5CC5)CC4)cc3)c3n[nH]cc3c2c1 [Example #272, [4-(4-Cyclopropylmethyl-piperazin-1-yl)-phenyl]-(8-methoxy-2H-pyrazolo[3,4-c]quinolin-4-yl)-amine] | 10 to 100 nM | < 10 nM | < 5000 nM
12 | COc1ccc2nc(Nc3ccc(N4CCN(C(C)(C)C)CC4)cc3)c3n[nH]cc3c2c1 [Example #273, [4-(4-tert-Butyl-piperazin-1-yl)-phenyl]-(8-methoxy-2H-pyrazolo[3,4-c]quinolin-4-yl)-amine] | 100 to 1000 nM | 10 to 100 nM | < 5000 nM
13 | COc1ccc2nc(Nc3ccc(N4CCN(CC(=O)O)CC4)cc3)c3n[nH]cc3c2c1 [Example #277, 2-(4-(4-((8-methoxy-2H-pyrazolo[3,4-c]quinolin-4-yl)amino)phenyl)piperazin-1-yl)acetic-acid] | 10 to 100 nM | 10 to 100 nM | < 5000 nM
14 | COc1ccc2nc(Nc3ccc(CO)cc3)c3n[nH]cc3c2c1 [Example #280, (4-((8-methoxy-2H-pyrazolo[3,4-c]quinolin-4-yl)amino)phenyl)methanol] | 100 to 1000 nM | 10 to 100 nM | < 5000 nM
15 | COc1ccc2nc(Nc3ccc(N4CCN(CCN(C)C)CC4)cc3)c3n[nH]cc3c2c1 [Example #281, {4-[4-(2-Dimethylamino-ethyl)-piperazin-1-yl]-phenyl}-(8-methoxy-2H-pyrazolo[3,4-c]quinolin-4-yl)-amine] | 10 to 100 nM | 10 to 100 nM | < 5000 nM
16 | COc1cc(OC)c2nc(Nc3ccc(CN4CCN(C)CC4)cc3)c3n[nH]cc3c2c1 [Example #282, (6,8-Dimethoxy-2H-pyrazolo[3,4-c]quinolin-4-yl)-[4-(4-methyl-piperazin-1-ylmethyl)-phenyl]-amine] | 100 to 1000 nM | 10 to 100 nM | < 5000 nM

Row | Compound | IC50 (LRRK2) | Ki (SYK kinase) | IC50 (MYLK)
17 | COc1cc(OC)c2nc(Nc3ccc(C(=O)N4CCN(C)CC4)cc3)c3n[nH]cc3c2c1 [Example #283, (4-((6,8-dimethoxy-2H-pyrazolo[3,4-c]quinolin-4-yl)amino)phenyl)(4-methylpiperazin-1-yl)methanone] | 100 to 1000 nM | 10 to 100 nM | < 5000 nM
18 | COc1cc(OC)c2nc(Nc3ccc(CN(C)C)cc3)c3n[nH]cc3c2c1 [Example #284, (6,8-Dimethoxy-2H-pyrazolo[3,4-c]quinolin-4-yl)-(4-dimethylaminomethyl-phenyl)-amine] | 100 to 1000 nM | 10 to 100 nM | < 5000 nM
19 | COc1ccc2nc(Nc3ccc4cc(C(=O)O)ccc4c3)c3n[nH]cc3c2c1 [Example #286, 6-((8-methoxy-2H-pyrazolo[3,4-c]quinolin-4-yl)amino)-2-naphthoic acid] | < 10 nM | 10 to 100 nM | < 5000 nM
20 | COc1ccc2nc(Nc3ccc(OCC(=O)O)cc3)c3n[nH]cc3c2c1 [Example #290, 2-(4-((8-methoxy-2H-pyrazolo[3,4-c]quinolin-4-yl)amino)phenoxy)acetic acid] | 100 to 1000 nM | 10 to 100 nM | < 5000 nM
21 | COc1ccc2nc(Nc3ccc4c(c3)CN(C)C4)c3n[nH]cc3c2c1 [Example #294, 8-methoxy-N-(2-methylisoindolin-5-yl)-2H-pyrazolo[3,4-c]quinolin-4-amine] | 100 to 1000 nM | 10 to 100 nM | < 5000 nM
22 | O=C(O)c1cccc(Nc2nc3ccc(O)cc3c3c[nH]nc23)c1 [Example #296, 3-((8-hydroxy-2H-pyrazolo[3,4-c]quinolin-4-yl)amino)benzoic acid] | 100 to 1000 nM | 100 to 1000 nM | < 5000 nM
23 | COc1ccc2nc(Nc3ccc(C(=O)N(C)CCN(C)C)cc3)c3n[nH]cc3c2c1 [Example #300, N-(2-(dimethylamino)ethyl)-4-((8-methoxy-2H-pyrazolo[3,4-c]quinolin-4-yl)amino)-N-methylbenzamide] | 10 to 100 nM | 10 to 100 nM | < 5000 nM
24 | COCC1CCCN1C(=O)c1ccc(Nc2nc3ccc(OC)cc3c3c[nH]nc23)cc1 (stereo not drawn) [Example #301, (4-((8-methoxy-2H-pyrazolo[3,4-c]quinolin-4-yl)amino)phenyl)(2-(methoxymethyl)pyrrolidin-1-yl)methanone] | 10 to 100 nM | 10 to 100 nM | < 5000 nM
25 | COc1ccc2nc(Nc3ccc(C(=O)N(C)C)cc3)c3n[nH]cc3c2c1 [Example #303, 4-((8-methoxy-2H-pyrazolo[3,4-c]quinolin-4-yl)amino)-N,N-dimethylbenzamide] | 10 to 100 nM | 100 to 1000 nM | < 5000 nM
26 | COc1ccc2nc(Nc3ccc4c(c3)CCCN4C)c3n[nH]cc3c2c1 [Example #308, 8-methoxy-N-(1-methyl-1,2,3,4-tetrahydroquinolin-6-yl)-2H-pyrazolo[3,4-c]quinolin-4-amine] | 100 to 1000 nM | 10 to 100 nM | < 5000 nM
27 | COc1ccc2nc(Nc3cccc(S(C)(=O)=O)c3)c3n[nH]cc3c2c1 [Example #320, 8-methoxy-N-(3-(methylsulfonyl)phenyl)-2H-pyrazolo[3,4-c]quinolin-4-amine] | 100 to 1000 nM | 100 to 1000 nM | < 5000 nM
28 | CC(=O)N1CCN(c2ccc(Nc3nc4ccc(F)cc4c4cn[nH]c34)cc2)CC1 [Example #323, 1-(4-(4-((8-fluoro-3H-pyrazolo[3,4-c]quinolin-4-yl)amino)phenyl)piperazin-1-yl)ethan-1-one] | 100 to 1000 nM | 100 to 1000 nM | < 5000 nM
29 | O=C1COc2ccc(Nc3nc4ccc(F)cc4c4cn[nH]c34)cc2N1 [Example #324, 6-((8-fluoro-3H-pyrazolo[3,4-c]quinolin-4-yl)amino)-2H-benzo[b][1,4]oxazin-3(4H)-one] | 100 to 1000 nM | 10 to 100 nM | < 5000 nM
30 | CN1CCN(c2ccc(Nc3nc4ccc(I)cc4c4cn[nH]c34)cc2)CC1 [Example #333, 8-iodo-N-(4-(4-methylpiperazin-1-yl)phenyl)-3H-pyrazolo[3,4-c]quinolin-4-amine] | 100 to 1000 nM | < 10 nM | < 5000 nM
31 | COc1cccc2nc(Nc3cccc(S(C)(=O)=O)c3)c3[nH]ncc3c12 [Example #338, 9-methoxy-N-(3-(methylsulfonyl)phenyl)-3H-pyrazolo[3,4-c]quinolin-4-amine] | 100 to 1000 nM | 100 to 1000 nM | < 5000 nM
